Molecules are shown by their SMILES.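 Compound exposure: 48 hours, 5 concentrations, 96-well plates. GI50 = concentration required for 50% inhibition of growth.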 The source made the active and inactive calls. Rule as the data show it: active = GI50 up to about 1.1 µM and inactive = higher. Bounds are passed on as bounds.

Test systems include SF-539; NCI-H460; HCT-15; OVCAR-3; EKVX; OVCAR-5; OVCAR-4; RXF 393; HOP-92; KM12; COLO 205; 786-0; MDA-N; HL-60; NCI-H226; MOLT-4; CCRF-CEM; Malme-3M; CAKI-1; SK-OV-3.
Common to all, as to assay: growth of human tumour cells (NCI), 48 h

As to `O=C1OCC/C1=C/c1ccc(/N=N/c2c(O)ccc3ccccc23)cc1`, the GI50 in the assay on SF-539 is 18.4 µM (inactive); in the assay with NCI-H460, 19.7 µM (inactive); with HCT-15, 24.9 µM; in the assay with OVCAR-3, 18.1 µM (inactive); in the assay on EKVX it was 19.1 µM (inactive); in the assay on OVCAR-5, 22.3 µM (inactive). Besides, the GI50 was 18.6 µM (inactive) with OVCAR-4; 19.3 µM (inactive) in the assay on RXF 393; 27.4 µM (inactive) in the assay on HOP-92; 5.11 µM (inactive) in the assay on KM12; 25.1 µM (inactive) in the assay on COLO 205; 19.1 µM (inactive) in the assay with 786-0. Besides, the GI50 with MDA-N is 13.8 µM (inactive); with HL-60 it was 22.6 µM (inactive); in the assay on NCI-H226, 19.4 µM (inactive); in the assay with MOLT-4, 19.5 µM (inactive); in the assay on CCRF-CEM, 22.9 µM (inactive); in the assay on Malme-3M it was 15.6 µM (inactive). In addition, the GI50 is 19.7 µM (inactive) in the assay with CAKI-1 and 28.3 µM (inactive) in the assay on SK-OV-3.

As to `O=C(O)CCCCCNC(=O)CCC(CN(CC(=O)OCc1ccccc1)CC(=O)OCc1ccccc1)N(CC(=O)OCc1ccccc1)CC(=O)OCc1ccccc1` (stereo not given), the GI50 was 20.7 µM (inactive) in the assay on SF-539; 30.4 µM (inactive) in the assay with NCI-H460; 17.9 µM in the assay on HCT-15; 17.3 µM (inactive) in the assay with OVCAR-3; 22 µM (inactive) in the assay on EKVX; 18.2 µM (inactive) in the assay with OVCAR-5. For the same compound, the GI50 is 16.9 µM (inactive) with OVCAR-4; 14.7 µM (inactive) in the assay on RXF 393; 13.3 µM (inactive) in the assay with HOP-92; 17.6 µM (inactive) in the assay with KM12; 16.7 µM (inactive) with COLO 205; 18 µM (inactive) in the assay on 786-0. For the same compound, the GI50 with MDA-N was 18.2 µM (inactive); in the assay on HL-60 it was 15 µM (inactive); with NCI-H226 it was 22.9 µM (inactive); in the assay on MOLT-4, 15.2 µM (inactive); in the assay with CCRF-CEM it was 16 µM (inactive); in the assay with Malme-3M, 19.2 µM (inactive). Moreover, the GI50 is 18.3 µM (inactive) in the assay with CAKI-1 and 13.3 µM (inactive) with SK-OV-3.

With `Cc1ccc([N+](=O)[O-])cc1S(=O)(=O)Nc1ccc(C2=NOC(c3ccco3)C2)cc1` (stereo not given), the GI50 in the assay on SF-539 was 23 µM (inactive); with NCI-H460 it was 18.5 µM (inactive); in the assay on HCT-15 it was 10.4 µM; in the assay with OVCAR-3 it was 14.8 µM (inactive); with EKVX it was 24.2 µM (inactive); in the assay with OVCAR-5, 22.9 µM (inactive). Also, the GI50 in the assay with OVCAR-4 was 14.9 µM (inactive); in the assay with RXF 393, 8.73 µM (inactive); in the assay with HOP-92, 29.2 µM (inactive); in the assay with KM12, 11.8 µM (inactive); with COLO 205, 20.1 µM (inactive); in the assay with 786-0, 18.2 µM (inactive). Besides, the GI50 was 6.44 µM (inactive) in the assay with MDA-N; 21.3 µM (inactive) in the assay with HL-60; 17 µM (inactive) in the assay on NCI-H226; 15.1 µM (inactive) in the assay with MOLT-4; 18 µM (inactive) in the assay with CCRF-CEM; 16.6 µM (inactive) in the assay with Malme-3M. The GI50 in the assay with CAKI-1 was 22.8 µM (inactive); in the assay on SK-OV-3 it was 28 µM (inactive).

On to `COc1cc2cc(C(=O)Nc3cc4n(n3)-c3ccccc3C4)[nH]c2c(OC)c1OC`, for which the GI50 was 7.08 µM (inactive) with SF-539; 1.64 µM (inactive) in the assay on NCI-H460; 2.52 µM with HCT-15; 2.19 µM (inactive) in the assay on OVCAR-3; 2.17 µM (inactive) in the assay with EKVX; 8.93 µM (inactive) in the assay with OVCAR-5. For the same compound, the GI50 in the assay on OVCAR-4 was 1.24 µM (inactive); in the assay with RXF 393, 30.1 µM (inactive); with HOP-92, 2.18 µM (inactive); in the assay on KM12, 1.85 µM (inactive); in the assay with COLO 205 it was 3.06 µM (inactive); in the assay with 786-0, 8.39 µM (inactive). Besides, the GI50 with MDA-N is 2.35 µM (inactive); with HL-60, 2.25 µM (inactive); in the assay on NCI-H226 it was 1.22 µM (inactive); in the assay with MOLT-4, 1.03 µM (active); with CCRF-CEM it was 1.38 µM (inactive); in the assay with Malme-3M, 1.29 µM (inactive). In addition, the GI50 is 1.72 µM (inactive) in the assay on CAKI-1 and 6.25 µM (inactive) in the assay with SK-OV-3.

With `O=C(CCN1CC2CCC(CC2)C1)c1cccs1`, the GI50 with SF-539 is 20.9 µM (inactive); in the assay with NCI-H460, 18.7 µM (inactive); in the assay on HCT-15, 20.4 µM; in the assay with OVCAR-3, 21.1 µM (inactive); in the assay on EKVX, 19.1 µM (inactive); in the assay with OVCAR-5, 16.4 µM (inactive). Besides, the GI50 in the assay on OVCAR-4 is 30.8 µM (inactive); in the assay with RXF 393 it was 19 µM (inactive); with HOP-92, 6.01 µM (inactive); in the assay on KM12 it was 19.9 µM (inactive); with COLO 205, 18.5 µM (inactive); with 786-0 it was 5.35 µM (inactive). Also, the GI50 in the assay with MDA-N is 17.1 µM (inactive); with HL-60, 20.7 µM (inactive); in the assay with NCI-H226, > 100 µM (inactive); with MOLT-4 it was 3.32 µM (inactive); with CCRF-CEM, 1.94 µM (inactive); in the assay with Malme-3M it was 21.1 µM (inactive). Moreover, the GI50 in the assay on CAKI-1 was 18.7 µM (inactive); in the assay on SK-OV-3, > 37.8 µM (inactive).

As for `COc1cc(C2c3cc4c(cc3OC(NNc3ccccc3)C2C)OCO4)cc(OC)c1O` (stereo not given), the GI50 in the assay with SF-539 was 0.596 µM (active); in the assay with NCI-H460 it was 0.337 µM (active); in the assay with HCT-15, 0.313 µM; in the assay with OVCAR-3, 2.36 µM (inactive); in the assay on EKVX, 7.8 µM (inactive); in the assay on OVCAR-5, 3.21 µM (inactive). Moreover, the GI50 in the assay with OVCAR-4 is 13.3 µM (inactive); with RXF 393, 1.92 µM (inactive); in the assay with HOP-92 it was 9.2 µM (inactive); in the assay with KM12, 0.251 µM (active); in the assay with COLO 205 it was 2.93 µM (inactive); in the assay on 786-0 it was 3.18 µM (inactive). Moreover, the GI50 with MDA-N is 0.294 µM (active); in the assay with HL-60 it was 1.26 µM (inactive); in the assay with NCI-H226, 3.56 µM (inactive); in the assay on MOLT-4, 0.275 µM (active); in the assay with CCRF-CEM it was 0.463 µM (active); in the assay with Malme-3M, 3.42 µM (inactive). In addition, the results for the GI50 in the assay with CAKI-1 and in the assay with SK-OV-3 were 3.33 µM (inactive) and 3.79 µM (inactive), respectively.

Regarding `N#Cc1ccccc1NC(=O)C(O)C(O)C(O)C(O)C=O` (stereo not given), the GI50 was > 100 µM (inactive) with SF-539; > 100 µM (inactive) with NCI-H460; more than 100 µM in the assay with HCT-15; > 100 µM (inactive) with OVCAR-3; > 100 µM (inactive) in the assay on EKVX; > 100 µM (inactive) in the assay on OVCAR-5. For the same compound, the GI50 with OVCAR-4, in the assay with RXF 393, in the assay on HOP-92, with KM12, in the assay with COLO 205 and in the assay with 786-0 was > 100 µM (inactive) in each case. The GI50 in the assay on MDA-N, with HL-60, in the assay on NCI-H226, in the assay on MOLT-4, in the assay with CCRF-CEM and in the assay with Malme-3M was > 100 µM (inactive) each time. Also, the GI50 in the assay on CAKI-1 and in the assay with SK-OV-3 was > 100 µM (inactive) in each case.

Consider `CSC(SC)=C1CC(=O)Nc2ccccc2C1=O`, for which the GI50 with SF-539 was 58.7 µM (inactive); in the assay with NCI-H460, > 100 µM (inactive); in the assay with HCT-15, 36.1 µM; with OVCAR-3, 45 µM (inactive); in the assay with EKVX it was > 100 µM (inactive); in the assay with OVCAR-5, > 100 µM (inactive). In addition, the GI50 was > 100 µM (inactive) with OVCAR-4; 18.6 µM (inactive) in the assay with RXF 393; 22.2 µM (inactive) with HOP-92; > 100 µM (inactive) in the assay on KM12; 58.2 µM (inactive) in the assay on COLO 205; 45.6 µM (inactive) in the assay with 786-0. Moreover, the GI50 in the assay on MDA-N was 40.6 µM (inactive); in the assay on HL-60, 27.7 µM (inactive); in the assay with NCI-H226, > 100 µM (inactive); in the assay with MOLT-4, 26.1 µM (inactive); in the assay with CCRF-CEM, 19.7 µM (inactive); with Malme-3M, 37.4 µM (inactive). The GI50 in the assay with CAKI-1 is 34.1 µM (inactive); with SK-OV-3, > 100 µM (inactive).

With `O=S1(=O)N=C(SCc2ccccc2)N(c2ccccc2)c2ccncc21`, the GI50 in the assay on SF-539 is 66.2 µM (inactive); in the assay on NCI-H460, 28.8 µM (inactive); in the assay on HCT-15, 26.5 µM; in the assay with OVCAR-3, 31.9 µM (inactive); with EKVX, 24.4 µM (inactive); in the assay with OVCAR-5 it was > 100 µM (inactive). Besides, the GI50 in the assay on OVCAR-4 is 23.3 µM (inactive); with RXF 393, 26.6 µM (inactive); in the assay with HOP-92, 22.2 µM (inactive); in the assay on KM12, 41 µM (inactive); in the assay on COLO 205 it was 19.7 µM (inactive); in the assay on 786-0, 40.8 µM (inactive). Besides, the GI50 in the assay on MDA-N was 27.4 µM (inactive); with HL-60 it was 29.6 µM (inactive); in the assay with NCI-H226, 37.6 µM (inactive); in the assay with MOLT-4, 17.7 µM (inactive); in the assay with CCRF-CEM, 28.5 µM (inactive); in the assay with Malme-3M, 49.5 µM (inactive). Also, the GI50 in the assay with CAKI-1 is 39.2 µM (inactive); with SK-OV-3, 38.8 µM (inactive).

Turning to `CC(=O)Nc1c2sscc-2n(C)c1=O` [THIOLUTIN], the GI50 was 1.86 µM (inactive) in the assay on SF-539; 0.537 µM (active) in the assay with NCI-H460; 1.32 µM in the assay with HCT-15; 1.82 µM (inactive) in the assay with OVCAR-3; 1.87 µM (inactive) in the assay with EKVX; 1.6 µM (inactive) in the assay on OVCAR-5. Further, the GI50 in the assay with OVCAR-4 was 1.56 µM (inactive); in the assay on RXF 393 it was 1.71 µM (inactive); in the assay on HOP-92, 2.23 µM (inactive); with KM12 it was 1.32 µM (inactive); in the assay with COLO 205, 0.596 µM (active); with 786-0, 1.52 µM (inactive). The GI50 in the assay on MDA-N was 1.56 µM (inactive); in the assay on HL-60, 0.512 µM (active); in the assay on NCI-H226, 1.89 µM (inactive); in the assay with MOLT-4, 0.152 µM (active); in the assay with CCRF-CEM it was 0.282 µM (active); in the assay with Malme-3M it was 0.787 µM (active). The GI50 in the assay with CAKI-1 was 1.89 µM (inactive); in the assay with SK-OV-3, 1.2 µM (inactive).

Source of the values: ChEMBL document CHEMBL1201862, “PubChem BioAssay data set” (2004).
